Entries after “also recorded” stand apart in the source; their conditions may differ.
How the values were obtained:
[1] = test system: human skin (surgical waste); assay: Ex vivo human skin assay, qRT-PCR; assay type: cell-based; conditions: 24 hrs; 5 uM ICG-001, 5 uM methylated ICG-001, 1 ug/ml RA
Protocol: Methods. Ex Vivo human skin assay culture conditions were based upon a paper by Varani J et al Experimental and Molecular Pathology, 2004.
Briefly, human skin (surgical waste from plastic surgery procedures) was obtained and the subcutaneous layer of fat was trimmed manually with a scalpel. The skin was then cut into small fragments about 2 mm square and placed in 6 well plates. 1 ml of keratinocyte culture medium (Gibco 10724-011) with 1% P/S (penstrep antibiotic) was added to each well. The epidermis, bathed in media was placed facing up. On the next day (overnight culture in the media above), the skin fragments were transferred to fresh wells that contained either 5 uM ICG-001, 5-uM methylated ICG-001 or 1 ug/ml of retinoic acid (RA). After 24 hrs, skin samples in culture were removed for RNA isolation and qRT-PCR analysis of genes of interest (e.g., elastin (a gene involved in skin appearance and pliability (e.g., wrinkling)) and aquaporin 1, which is involved with hydration.

[2] = test system: mitotic cells in the ventricular zone (VZ); assay: Par3 localization assay of symmetric versus asymmetric divisions in the ventricular zone of embryonic brain; assay type: in vivo, mouse
Description: Taking advantage of the ready uptake and penetration through the placental barrier of applicant's small molecule Wnt modulators, applicant designed a series of experiments to investigate symmetric versus asymmetric divisions in the ventricular zone (VZ) of the brain during mouse embryonic development. Timed pregnant mice were topically treated for various time periods (1-3 days) with DMSO (vehicle control), the CBP/catenin antagonist ICG-001 or the p300/catenin antagonist IQ-1. Using a previously described protocol (56), the localization of […] (Par3) and DNA was examined in mitotic cells in the VZ. Par3 distributes symmetrically in cells that divide symmetrically and asymmetrically in cells that divide asymmetrically, whereas the DNA distributes symmetrically between the 2 cells. Using fluorescence microscopy, the percentage of mitotic cells dividing symmetrically or asymmetrically could be quantified. […] Antagonizing the CBP/catenin interaction with ICG-001 had no apparent effect yielding similarly, approximately 21% asymmetric divisions. […] Importantly, this decrease in asymmetric divisions upon treatment with IQ-1 could be rescued back essentially to control levels (i.e. ˜21%) by treatment with a 2-fold excess of ICG-001. Even further divergence in symmetric versus asymmetric divisions could be seen upon prolonged treatments. For example, treatment with IQ-1 (i.e., antagonizing p300/catenin interaction leading to increased usage of CBP) for 3 days (E13.5-16.5) decreased asymmetric divisions compared to control from 31% to 7%. […] This reporter mouse expresses EGFP, driven by the Tis21 promoter, in cells that have undergone neurogenic differentiative divisions.
For example, Bultje et al. (Bultje R Neuron 63, 189-202, 2009) describe an assay to measure asymmetric distributions in the ventricular zone (vz) to evaluate asymmetric divisions during neurogenesis. Essentially this involves treating the animal (either adult or in utero) for a set period of time with compounds (either p.o., s.c., i.v. or topically) with compounds and then sacrificing the animal and examining the Par3 distribution (e.g., via immunohistochemistry) in mitotic cells vs. DNA distribution (e.g., using DAPI staining) Par3 distributes equally among the two daughter cells during symmetric division and unequally (essentially all in one daughter cell) during asymmetric differentiation.

[3] = test system: PR72/130 subunit of the serine/threonine phosphatase PP2A; assay: Binding to PP2A subunit
Description: (§1) IQ-1. In addition to ICG-001, a screen of a large chemical library for maintenance of pluripotency in mES cells led to the identification of another compound, termed IQ-1 (FIG. 2b). […] I-Q-1 diminishes the interaction between p300 and beta-catenin thereby increasing the CBP/beta-catenin interaction (24).

[4] = test system: murine embryonic stem cells (mESCs); assay: Maintenance of pluripotency of embryonic stem cells in long-term culture; assay type: cell-based, mouse; conditions: Wnt-dependent
Description: as §1
Similar results upon selectively antagonizing the p300/catenin interaction have also been obtained with human ES cells (32; Hasegawa, K. et al. accepted Stem Cells Translation Medicine 2011). Blocking the CBP/catenin interaction with ICG-001 can prevent the induction of pluripotency, whereas selectively antagonizing the p300/catenin interaction can enhance reprogramming (33; present applicant unpublished data).

p300 at Ser-89 = assay: Phosphorylation of p300 at Ser-89; assay type: cell-based
Description: as §1

[5] = test system: p300/beta-catenin interaction; assay: Disruption of the p300/beta-catenin interaction; assay type: biochemical
Description: Applicant next mapped the binding domains between CBP and beta-catenin, as well as between p300 and beta-catenin. The C-terminal trans-activating region of beta-catenin (647-781) interacted with the same 1-111 amino acids of both CBP and p300 (23). However, only the interaction between CBP and beta-catenin was disrupted by ICG-001, and not the p300/beta-catenin interaction.
as §1

aging mice = assay: Long term topical treatment of aging mice; assay type: in vivo, mouse; conditions: 12 months, from 6 to 18 months of age
Description: Left mouse is control, whereas right mouse received CBP/catenin (e.g., CBP/β-catenin) antagonists (topical Laura-8 as disclosed herein) for 12 months (from 6 months of age to 18 months of age).

hair-less mouse model = assay: Hair growth in a hair-less mouse model; assay type: in vivo
Protocol: The ability of CBP/β-catenin antagonist to stimulate hair growth in a hair-less mouse model was tested. In brief, the animals were treated with either petroleum jelly or Laura-8 for 16 days. In addition, skin samples from each animal were taken and examined for hair-follicle formulation.

skin injury = assay: Skin injury repair in normal mice and hair-less mice models; assay type: in vivo, mouse; conditions: 500 μM in vaseline once a day for eight days, both animal models
Protocol: The ability of CBP/catenin (e.g., CBP/β-catenin) antagonist to accelerate injured skin repair in normal mice models (having full hair growth and normal fur) and hair-less mice models was tested. In brief, on day 0, the animals were subjected to skin injury in two spots on the back, hind end of each animal. Each skin injury spot was treated with 500 μM of either Vaseline (petrolatum) (vehicle) or Laura-8 in vaseline once a day for eight days.

C[C@H]1C2N(C(=O)NCc3ccccc3)CCC(=O)N2[C@@H](Cc2ccc(O)cc2)C(=O)N1Cc1cccc2ccccc12 (some centres unmarked) [Me-ICG-001]
expression of aquaporin 1 [1]: larger increase | expression of elastin [1]: larger increase

CC(=O)c1ccc(N=NC(C(N)=O)=C2NC(C)(C)Cc3ccccc32)cc1 [IQ-1, reference compound]
asymmetric divisions in the VZ ([2]; 3 days, E13.5-16.5, control 31%): 7% | number of symmetric differentiative divisions ([2]; normal neural stem cells): increase | number of asymmetric divisions compared to vehicle control ([2]; topical or oral administration to pregnant mice): decreases | asymmetric divisions in the VZ ([2]; topical, 1 day, E13.5 to 14.5, DMSO approximately 21%): approximately 9% | binding to PR72/130 subunit of PP2A [3]: binds | pluripotency of mESCs [4]: maintains the pluripotency; also recorded: prevents spontaneous differentiation | phosphorylation of p300 at Ser-89 (p300 at Ser-89): decreased phosphorylation | p300/beta-catenin interaction [5]: diminishes

CCCCCCCCCCCC(=O)Oc1ccc(C[C@H]2C(=O)N(Cc3cccc4ccccc34)C[C@@H]3N(C(=O)NCc4ccccc4)CCC(=O)N32)cc1 [Laura-8]
normal stem cell niche (aging mice): does not deplete | hair growth (hair-less mouse model; 16 days, versus petroleum jelly): significant hair growth | new hair-follicle formation (hair-less mouse model; skin pathology): new hair-follicles were formed; also recorded: substantial new hair-follicle formation | skin healing (skin injury): significantly accelerated

Reference: patent US10092568B2, “CBP/Catenin antagonists for enhancing asymmetric division of somatic stem cells” (University of Southern California, priority 2010, dated 2018)
